According to ChEMBL document CHEMBL1201862, “PubChem BioAssay data set” (2004):
Calls of active or inactive are those of the source.

Key:
[1] = molecular target: T1, Aryl hydrocarbon receptor (Homo sapiens, UniProt P35869); conditions: Potency;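 further: confirmatory quantitative high-throughput screen measuring activation of the AhR signaling pathway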
T1 sequence (P35869 whole entry): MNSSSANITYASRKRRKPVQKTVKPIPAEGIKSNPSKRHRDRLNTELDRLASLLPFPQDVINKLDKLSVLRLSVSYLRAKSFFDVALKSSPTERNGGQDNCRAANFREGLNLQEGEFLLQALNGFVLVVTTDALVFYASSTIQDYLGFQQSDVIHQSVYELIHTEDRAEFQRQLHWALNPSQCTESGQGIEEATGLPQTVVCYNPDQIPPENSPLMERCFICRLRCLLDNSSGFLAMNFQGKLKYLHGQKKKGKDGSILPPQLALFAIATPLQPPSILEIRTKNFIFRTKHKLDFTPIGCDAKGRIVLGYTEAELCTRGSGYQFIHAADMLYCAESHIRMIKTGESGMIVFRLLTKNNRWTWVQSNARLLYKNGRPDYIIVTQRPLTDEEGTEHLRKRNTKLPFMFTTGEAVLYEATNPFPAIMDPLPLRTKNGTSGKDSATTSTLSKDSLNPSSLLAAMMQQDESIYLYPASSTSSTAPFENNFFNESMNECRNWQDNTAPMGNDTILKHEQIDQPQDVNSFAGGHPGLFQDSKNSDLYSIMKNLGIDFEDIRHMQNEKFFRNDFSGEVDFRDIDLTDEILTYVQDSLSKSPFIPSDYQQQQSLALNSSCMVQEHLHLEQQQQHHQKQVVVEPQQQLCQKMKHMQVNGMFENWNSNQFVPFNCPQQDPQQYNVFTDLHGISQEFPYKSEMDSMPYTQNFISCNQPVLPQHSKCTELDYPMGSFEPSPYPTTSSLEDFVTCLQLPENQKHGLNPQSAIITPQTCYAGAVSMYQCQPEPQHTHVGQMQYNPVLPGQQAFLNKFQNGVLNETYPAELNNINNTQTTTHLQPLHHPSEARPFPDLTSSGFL

[2] = molecular target: T2, Carboxy-terminal domain RNA polymerase II polypeptide A small phosphatase 1 (Homo sapiens, UniProt Q9GZU7); assay: inhibitors of CTDSP1, concentration-response testing, biochemical assay, absorbance-based, actives from ultra-high-throughput screening (AID 540297); format: functional
T2 sequence (Q9GZU7 whole entry): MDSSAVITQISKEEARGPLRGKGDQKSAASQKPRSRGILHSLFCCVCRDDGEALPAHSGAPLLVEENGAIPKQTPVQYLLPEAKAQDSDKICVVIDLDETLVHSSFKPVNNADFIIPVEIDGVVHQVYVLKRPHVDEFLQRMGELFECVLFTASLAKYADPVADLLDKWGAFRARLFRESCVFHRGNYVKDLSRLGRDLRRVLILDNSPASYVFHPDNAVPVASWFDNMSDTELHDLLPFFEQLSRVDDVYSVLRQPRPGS

[3] = molecular target: DNA (cytosine-5)-methyltransferase 1 (Homo sapiens, UniProt P26358); assay: DNMT1 methyltransferase inhibitors, confirmation, biochemical, fluorescent molecular beacon (AID 602386); format: functional
[4] = molecular target: Glucose-6-phosphate 1-dehydrogenase (Homo sapiens, UniProt P11413); assay: human G6PD enzyme inhibitors, dose response, selectivity assay for P. falciparum G6PD inhibitor project, biochemical, fluorescence (AID 504792); format: functional
Cysteine protease ATG4B = Cysteine protease ATG4B (Homo sapiens, UniProt Q9Y4P1); format: functional;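 further: Fluorescence-based dose-response confirmation assay measuring inhibition of ATG4B activity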
Phospholipase A2 = Phospholipase A2 (Homo sapiens, UniProt P04054); format: functional;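 further: confirmatory dose-response counterscreen on phospholipase A2, testing hits that came from an ultra-high-throughput screen for ATG4B inhibitors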
[5] = molecular target: DNA dC->dU-editing enzyme APOBEC-3A (Homo sapiens, UniProt P31941); assay: SAR analysis of small molecule inhibitors of APOBEC3A DNA Deaminase via a fluorescence-based single-stranded DNA deaminase assay - Set 2.; format: functional; conditions: read-out: IC50_Mean
[6] = molecular target: DNA dC->dU-editing enzyme APOBEC-3G (Homo sapiens, UniProt Q9HC16); assay: SAR analysis of small molecule inhibitors of APOBEC3G DNA Deaminase via a fluorescence-based single-stranded DNA deaminase assay - Set 2.; format: functional; conditions: read-out: IC50_Mean
[7] = HEp-2 cell cytotoxicity, dose response, cytotoxicity control for RSV inhibitor project, HTS (AID 2410); format: functional; conditions: human respiratory syncytial virus
[8] = THP-1 cell cytotoxicity, cytotoxicity control, set 4 (AID 504911); format: functional; conditions: Mycobacterium tuberculosis
[9] = molecular target: T3, High affinity choline transporter 1 (Homo sapiens, UniProt Q9GZV3); assay: CHT inhibitors, dose response, cell-based, 5-point CRC, membrane potential dye (AID 504840); format: functional
T3 sequence (Q9GZV3 whole entry): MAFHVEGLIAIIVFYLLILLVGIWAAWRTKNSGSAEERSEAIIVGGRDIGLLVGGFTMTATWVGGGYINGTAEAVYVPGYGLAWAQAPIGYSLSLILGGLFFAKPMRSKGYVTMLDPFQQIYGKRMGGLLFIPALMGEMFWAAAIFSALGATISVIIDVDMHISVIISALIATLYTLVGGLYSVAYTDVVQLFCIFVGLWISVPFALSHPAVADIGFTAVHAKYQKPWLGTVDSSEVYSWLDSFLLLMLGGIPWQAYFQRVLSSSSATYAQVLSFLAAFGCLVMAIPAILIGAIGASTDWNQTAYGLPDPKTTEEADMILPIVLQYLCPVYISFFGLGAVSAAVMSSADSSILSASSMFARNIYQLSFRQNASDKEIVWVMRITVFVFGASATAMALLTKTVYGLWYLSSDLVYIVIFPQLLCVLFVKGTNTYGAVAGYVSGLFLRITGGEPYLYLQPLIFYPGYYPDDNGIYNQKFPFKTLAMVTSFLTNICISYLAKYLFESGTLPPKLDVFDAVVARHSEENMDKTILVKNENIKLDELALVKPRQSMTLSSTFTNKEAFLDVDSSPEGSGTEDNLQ

[10] = molecular target: T3, High affinity choline transporter 1; assay: CHT inhibitors, dose response, cell-based, 10-point CRC, membrane potential dye (AID 588401); format: functional;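 further: membrane potential dye fluorescence of choline-evoked depolarization via CHT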

Chain of Cysteine protease ATG4B (Q9Y4P1 whole entry): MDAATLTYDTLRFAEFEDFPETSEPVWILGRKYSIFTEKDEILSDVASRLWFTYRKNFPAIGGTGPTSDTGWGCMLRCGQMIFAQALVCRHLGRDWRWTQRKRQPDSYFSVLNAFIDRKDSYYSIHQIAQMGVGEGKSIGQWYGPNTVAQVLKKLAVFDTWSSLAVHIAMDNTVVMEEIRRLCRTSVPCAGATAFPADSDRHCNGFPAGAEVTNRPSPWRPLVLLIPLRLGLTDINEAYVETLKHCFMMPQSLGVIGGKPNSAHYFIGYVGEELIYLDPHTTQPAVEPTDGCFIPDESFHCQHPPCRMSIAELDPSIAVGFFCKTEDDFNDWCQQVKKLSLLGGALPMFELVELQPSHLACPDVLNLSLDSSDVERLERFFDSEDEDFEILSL
Chain of Phospholipase A2 (P04054 whole entry): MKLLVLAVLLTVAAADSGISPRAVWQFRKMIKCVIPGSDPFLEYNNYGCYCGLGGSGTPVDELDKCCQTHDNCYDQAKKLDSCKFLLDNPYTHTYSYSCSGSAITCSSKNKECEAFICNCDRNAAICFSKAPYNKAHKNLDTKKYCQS
Chain of DNA dC->dU-editing enzyme APOBEC-3G (Q9HC16 whole entry): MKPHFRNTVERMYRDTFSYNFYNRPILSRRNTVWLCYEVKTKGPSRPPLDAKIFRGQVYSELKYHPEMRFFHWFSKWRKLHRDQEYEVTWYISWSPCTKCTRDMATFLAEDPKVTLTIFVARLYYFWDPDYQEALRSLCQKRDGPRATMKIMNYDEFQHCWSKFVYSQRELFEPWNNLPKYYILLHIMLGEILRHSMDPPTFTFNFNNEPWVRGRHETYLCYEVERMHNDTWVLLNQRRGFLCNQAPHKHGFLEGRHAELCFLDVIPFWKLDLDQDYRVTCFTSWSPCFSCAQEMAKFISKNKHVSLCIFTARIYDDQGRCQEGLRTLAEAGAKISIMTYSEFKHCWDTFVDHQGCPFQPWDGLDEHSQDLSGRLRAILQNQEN
Chain of DNA dC->dU-editing enzyme APOBEC-3A (P31941 whole entry): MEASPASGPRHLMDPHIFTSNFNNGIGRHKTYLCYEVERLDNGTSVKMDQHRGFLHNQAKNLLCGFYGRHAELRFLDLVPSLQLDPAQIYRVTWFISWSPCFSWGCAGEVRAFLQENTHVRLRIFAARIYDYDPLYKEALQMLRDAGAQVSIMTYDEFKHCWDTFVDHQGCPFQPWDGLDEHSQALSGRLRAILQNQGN
Chain of Glucose-6-phosphate 1-dehydrogenase (P11413 whole entry): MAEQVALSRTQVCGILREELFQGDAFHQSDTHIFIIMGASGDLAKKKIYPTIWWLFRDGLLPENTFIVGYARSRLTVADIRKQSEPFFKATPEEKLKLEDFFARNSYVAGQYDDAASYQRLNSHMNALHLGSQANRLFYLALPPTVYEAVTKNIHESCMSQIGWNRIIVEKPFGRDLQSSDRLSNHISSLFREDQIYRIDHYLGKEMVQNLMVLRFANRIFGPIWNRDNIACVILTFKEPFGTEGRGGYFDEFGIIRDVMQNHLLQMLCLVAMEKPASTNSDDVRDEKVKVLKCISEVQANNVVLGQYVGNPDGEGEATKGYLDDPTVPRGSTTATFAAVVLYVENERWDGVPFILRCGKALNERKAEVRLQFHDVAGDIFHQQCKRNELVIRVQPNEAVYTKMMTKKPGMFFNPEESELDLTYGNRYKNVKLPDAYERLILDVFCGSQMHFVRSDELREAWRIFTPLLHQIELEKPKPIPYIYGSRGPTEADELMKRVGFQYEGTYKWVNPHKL
Chain of DNA (cytosine-5)-methyltransferase 1 (P26358 whole entry): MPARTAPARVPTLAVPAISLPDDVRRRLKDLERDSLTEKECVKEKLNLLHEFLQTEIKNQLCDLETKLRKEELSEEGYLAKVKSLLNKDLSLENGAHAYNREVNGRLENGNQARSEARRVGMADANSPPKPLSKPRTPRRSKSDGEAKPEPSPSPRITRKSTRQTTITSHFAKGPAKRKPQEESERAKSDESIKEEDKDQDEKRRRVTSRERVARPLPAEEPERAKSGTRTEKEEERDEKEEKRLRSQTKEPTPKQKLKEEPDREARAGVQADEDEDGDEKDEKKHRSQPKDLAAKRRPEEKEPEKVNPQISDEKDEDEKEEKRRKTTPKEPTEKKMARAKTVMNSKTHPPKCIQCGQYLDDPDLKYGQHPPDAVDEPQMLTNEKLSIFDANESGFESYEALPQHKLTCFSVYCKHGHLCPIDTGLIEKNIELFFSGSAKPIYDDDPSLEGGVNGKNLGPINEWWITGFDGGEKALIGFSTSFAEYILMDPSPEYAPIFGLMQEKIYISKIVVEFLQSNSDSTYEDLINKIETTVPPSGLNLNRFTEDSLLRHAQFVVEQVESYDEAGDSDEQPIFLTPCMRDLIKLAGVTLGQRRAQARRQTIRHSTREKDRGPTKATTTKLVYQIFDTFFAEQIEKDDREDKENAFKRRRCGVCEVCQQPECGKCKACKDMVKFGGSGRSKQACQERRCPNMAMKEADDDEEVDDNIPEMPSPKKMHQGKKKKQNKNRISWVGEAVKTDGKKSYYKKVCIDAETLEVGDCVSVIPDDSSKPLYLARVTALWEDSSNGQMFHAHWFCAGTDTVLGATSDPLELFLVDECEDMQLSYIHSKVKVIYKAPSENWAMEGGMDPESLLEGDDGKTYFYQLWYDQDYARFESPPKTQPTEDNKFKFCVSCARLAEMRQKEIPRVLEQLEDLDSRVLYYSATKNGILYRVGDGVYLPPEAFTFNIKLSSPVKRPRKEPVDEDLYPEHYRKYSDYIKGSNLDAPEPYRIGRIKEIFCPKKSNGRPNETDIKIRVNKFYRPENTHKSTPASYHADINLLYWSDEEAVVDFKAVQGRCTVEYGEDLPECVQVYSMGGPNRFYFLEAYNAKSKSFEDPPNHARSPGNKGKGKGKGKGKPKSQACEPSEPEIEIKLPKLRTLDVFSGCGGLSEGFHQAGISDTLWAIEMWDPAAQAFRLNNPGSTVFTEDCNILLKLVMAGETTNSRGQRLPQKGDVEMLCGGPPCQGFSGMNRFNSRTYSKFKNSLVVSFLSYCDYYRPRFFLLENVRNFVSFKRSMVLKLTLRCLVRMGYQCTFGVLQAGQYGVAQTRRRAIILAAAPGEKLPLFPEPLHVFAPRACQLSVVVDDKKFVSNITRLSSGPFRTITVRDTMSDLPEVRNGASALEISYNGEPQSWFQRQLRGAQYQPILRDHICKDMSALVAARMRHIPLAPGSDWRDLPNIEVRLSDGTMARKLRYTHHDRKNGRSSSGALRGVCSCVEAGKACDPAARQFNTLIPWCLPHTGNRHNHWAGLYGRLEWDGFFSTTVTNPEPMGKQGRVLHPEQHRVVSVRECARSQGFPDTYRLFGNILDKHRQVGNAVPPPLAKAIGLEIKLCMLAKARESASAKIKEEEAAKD

For `N[C@@H](Cc1c[nH]c2ccc(O)cc12)C(=O)O` [OXITRIPTAN], the AC50 [1] was 39.8 µM (inconclusive).

In the case of `COc1cc(/C=C(\CCC(=O)O)c2nc3ccccc3s2)ccc1OCC(=O)Nc1c(Cl)cccc1Cl`, the IC50 [2] is reported as 2.3 µM (active) and the IC50 [3] is reported as 10.1 µM (active).

In the case of `Clc1cccc(Cl)c1CNc1ccc(N2CCCC2)cc1`, the IC50 [4] is reported as > 80 µM (inactive), the IC50 (Cysteine protease ATG4B) is reported as 11.9 µM (active) and the IC50 (Phospholipase A2) is reported as 7.99 µM (active).

With `Cc1nc2sc3c(c2c2n[nH]c(=S)n12)CCCC3` the IC50 [5] was > 99 µM (inactive) and the IC50 [6] was 0.693 µM (active).

In the case of `O=C(CCCn1c(=S)[nH]c2cc3c(cc2c1=O)OCO3)N1CCN(c2ccc(F)cc2)CC1`, the CC50 [7] is reported as 26.2 µM (active), the IC50 (Cysteine protease ATG4B) is reported as 13.5 µM (active) and the IC50 (Phospholipase A2) is reported as 7.34 µM (active).

In the case of `O=C(CSc1nccc(=O)[nH]1)NC1CCCCC1`, the CC50 [8] is reported as > 100 µM (active).

In the case of `CCn1cc(C(=O)NCCCN2CCC(C)CC2)c(=O)c2cc(S(=O)(=O)N(C)C3CCCCC3)ccc21`, the IC50 [9] is reported as 7.24 µM (active) and the IC50 [10] is reported as 7.94 µM (active).
